Data published in patent US20100015042A1, “Combine radiation therapy and chemotherapy for treating cancer” (priority 2008, published 2010).

Key:
SQ2 tumors = assay: Tumor growth and survival, two 224Ra wires at the tumor base with two cisplatin doses; type: in vivo, BALB/c mice
Protocol: Tumor cell inoculation: Animals were inoculated intra-cutaneously with 5·10^5 SQ2 cells in 0.2 ml HBSS or 10^5 (CT26 and Panc-02) in 0.1 ml of HBSS (Biological industries, Beit haemek, Israel) into the low lateral side of the back. Local tumor growth was determined by measuring three mutually orthogonal tumor diameters with a digital caliper (Mitutoyo, Japan). The volume of tumor was calculated using the formula: V=(π/6)·D1D2D3, where D1, D2, D3 stand for the measured diameters
Wire insertion: Wires, either loaded with ^224Ra or inert, cut to a length of 5-6 mm, were placed near the tip of a 23G needle attached to a 2.5 ml syringe (Picindolor, Rome, Italy) and inserted into the tumor by a plunger placed internally along the syringe axis.
Statistical analysis: The statistical significance (p-value) of the differences between tumor volumes in the various groups was assessed by applying Student's two-sided t-test and repeated measures ANOVA. Survival analysis (Mantel-Cox test) was carried out using Statsoft Statistica 7.0.
The following experiment was performed in order to examine the effect of two ^224Ra wires inserted horizontally to the base of each tumor in combination with 2 doses of chemotherapy. The cisplatin was administered using the same regime as that described in Example 3.
A pronounced difference between tumor volumes of the irradiated group (^224Ra wires) and the animals treated with Cisplatin (CP) can be seen 10 days following DART treatment. […] Moreover, when analyzing the results of the group treated with the combination of Cisplatin and ^224Ra wires, it appears that a major growth inhibition was achieved when both modalities were administrated concomitantly. […] Twenty-four days following DART treatment, the average tumor volumes of the combined treatment group was 14 fold smaller compared to the inert control group (300 mm^3 and 4286 mm^3 respectively), and 3 fold smaller compared to the best effect achieved by the radioactive wires alone (924 mm^3). […]

SQ2 cells = assay: XTT cell proliferation assay on radioactive (224Ra-implanted) microplates; type: cell-based, mouse
Protocol: Tumors: SQ2 cell line is a murine anaplastic cell line, which was generated from a SCC tumor that has developed spontaneously in a male BALB/c mouse. Panc02 is a murine pancreatic carcinoma cell line. CT26 cells is a N-nitroso-N-methylurethane-(NNMU) induced, undifferentiated colon carcinoma cell line which was purchased from the ATCC (CRL-2638). All cells were grown in Dulbecco's Modified Eagle Medium (DMEM) supplemented with 10% Fetal Calf Serum (Biological Industries, Beit Haemek, Israel), L-glutamine (2 mM), Penicillin (100 U/ml) and Streptomycin (100 μg/ml). […]
Cell proliferation assay: The antiproliferative effects of alpha particles and cisplatin, alone and in combination, were determined using a 3-bis (2-methoxy-4-nitro-5 sulfenyl)-(2H)-tetrazolium-5-carboxanilide (XTT) assay (Cell Proliferation Kit, Biological industries, Beit-haemek, Israel). […] After two hours of incubation, absorbance was analyzed using an automated spectrophotometer (VersaMax, Molecular Devices, USA) at 475 nm wavelength.
SQ2 cells were plated in 96 well plates implanted with ^224Ra atoms (0, 0.02, 0.063, 0.2, 0.63 and 2 Bq/mm^2, radioactive microplates). […] Cell numbers were assessed by the XTT assay 24, 48, and 72 hrs of incubation and expressed as percent of non-treated control cells.

[1] = system: lung metastases of SQ2 tumors; assay: Histological assessment of lung metastatic load; type: in vivo, BALB/c mice; conditions: treatment given alone, day 26, compared to inert wires
Protocol: Histology: Histological analysis was performed on BALB/c mice lungs, both treated and untreated. Immediately following their removal, lungs were fixed by a 4% formaldehyde solution (Sigma, Rehovot, Israel) for at least 24 hrs. The preserved specimens were embedded in paraffin, and sections (5-10 μm) were stained with hematoxylin-eosin (H&E) (Surgipath, Richmond, USA) and analyzed for metastases detection. Metastatic burden quantification was performed by summing the gray values of all the pixels in the region of interest (ROI) divided by the number of pixels using image J free software [http://rsbdotinfodotnihdotgov/ij/].
Histological assessment of lung sections was conducted in order to investigate the effect of the destruction of the primary tumor by DART wires on the development of metastases with or without the addition of cisplatin. Each 4 groups (Inert, ^224Ra wires, CP, CP+^224Ra wires) contained 3 animals. Animals were sacrificed at day 26 (lung metastases has been observed in this model at this time in previous studies) and lungs were harvested and processed for histological analysis and compared to normal lung tissues taken from healthy BALB/c mice. FIG. 5C describes the inhibition of lung metastatic load in mice treated with both intratumoral alpha irradiation and chemotherapy when compared to lungs of mice treated with inert wires.

[2] = system: CT26 colon carcinoma tumors; assay: Colon carcinoma tumor growth and cure, two 224Ra wires with 5-FU; type: in vivo, Balb/c mice; conditions: 5-FU 75 mg/kg 24 hours prior to wires; tumors 6-7 mm in diameter
Protocol: FIG. 7 is a graph showing the effect of two ^224Ra-loaded wires combined with 5-FU treatment on colon cancers. Treatment was applied to Balb/c mice bearing 6-7 mm in diameter tumors. Two ^224Ra wires: Tumor bearing mice treated with 2 ^224Ra wires, carrying activities in the range of 27.9-35.5 kBq (n=5). Two ^224Ra wires combined with 5-FU: administration of 75 mg/kg 5-FU 24 hours prior to treatment with 2 ^224Ra wires, carrying activities in the range of 32.1-33.8 kBq (n=5). Two Inert wires combined with 5-FU: administration of 75 mg/kg 5-FU 24 hours prior to treatment with 2 inert wires (n=6). Two Inert wires: Tumor bearing mice treated with 2 inert wires (n=6).
Tumor cell inoculation: Animals were inoculated intra-cutaneously with 5·10^5 SQ2 cells in 0.2 ml HBSS or 10^5 (CT26 and Panc-02) in 0.1 ml of HBSS (Biological industries, Beit haemek, Israel) into the low lateral side of the back. Local tumor growth was determined by measuring three mutually orthogonal tumor diameters with a digital caliper (Mitutoyo, Japan). The volume of tumor was calculated using the formula: V=(π/6)·D1D2D3, where D1, D2, D3 stand for the measured diameters […]

SMILES | average tumor volume, fold greater than the DART treated group (SQ2 tumors; 32 days after tumor cell inoculation, cisplatin 2 x 5 mg/kg vs two 224Ra wires) [fold] | prolongation of average survival compared to inert group (SQ2 tumors; two wires, cisplatin 2 x 5 mg/kg) [%] | mean survival (SQ2 tumors; two wires, cisplatin 2 x 5 mg/kg, inert control 43.92 days) [days] | proliferation inhibition (SQ2 cells; 0.3 μM cisplatin alone, 72 hours) [%] | antiproliferative effect (SQ2 cells; 3 and 30 μM, drug alone) [%] | effect on lung metastatic burden (in words) [1] | No. of animals with tumors following treatment [2]
N.N.[Cl][Pt][Cl] [cisplatin] | 2.14 | 17 | 51.38 | 21 | > 60 | decreased metastatic burden although less than the combined treatment | 
O=c1[nH]cc(F)c(=O)[nH]1 [Two inert wires and 5-FU, 5-fluorouracil] |  |  |  |  |  |  | 6/6 with
